Test results from patent publication US8637528B2, “Use of PDE7 inhibitors for the treatment of movement disorders” (Omeros Corporation, priority 2007, dated 2014).
“Also recorded” adds a separate entry of the source. Where two headings read alike, the source gives them in different places.

Assays:
[1] = molecular target: T1, Catechol-O-Methyltransferase (COMT) (Sus scrofa, UniProt D3K5L3); assay: biochemical; format: biochemical, pig
[2] = molecular target: T1, Catechol-O-Methyltransferase (COMT); conditions: read-out: Positive Control Expected IC50 (historical), COMT; historical value; cited from earlier work
PDE7A = PDE7A (Homo sapiens (Human), UniProt Q13946); assay: PDE7 phosphodiesterase scintillation proximity assay (SPA), PDE7A; format: biochemical
[3] = plasma and brain concentration in mice after intraperitoneal injection (LC/MS/MS); format: in vivo, mouse; conditions: mouse, at 0.5 mg/kg, analogous calculation
Procedure: Adult male C57BL/6J; retired breeders, aged between 7-9 months (Jackson Laboratory, Bar Harbor, Me., USA), singly housed.
Just prior to the harvesting of tissues, mice were anesthetized with avertin. Samples of whole brain or plasma were collected from three animals per time point at 15 minutes, 30 minutes, 60 minutes, 120 minutes, and 240 minutes after injection. Blood samples were collected by retro-orbital bleeding. Plasma was prepared and red cells were removed by centrifugation. The mice were perfused with saline to remove contaminating blood. The brains were removed and rapidly frozen in liquid nitrogen for subsequent analysis. The plasma and brain samples were stored at −80° C. or on dry ice and the concentration of compound was determined by LC/MS/MS analysis as follows:
Whole brain tissue was homogenized using a Mini-Beaddeater-8™ (BioSpec Products, Bartlesville, Okla.). Plasma or homogenized brain samples were precipitated with acetonitrile and filtered in 96-well format using Captiva 0.20 micron filtration plates (Varian Corp, Lake Forest, Calif.). Filtrates were evaporated under nitrogen to dryness at 50° C. and were then reconstituted for LC-MS analysis.
Quantitative measurements for inhibitory compound in plasma and brain samples were obtained using a Thermo Ultra triple quadrupole mass spectrometer (Thermo Fisher Scientific, San Jose, Calif.), utilizing electrospray ionization in the multiple reaction monitoring mode of data acquisition. Sample extracts were injected onto a 2.1×30 mm packed Xterra C18-MS high pressure liquid chromatography (HPLC) column (Waters Corp, Milford, Mass.). The mobile phase eluting the compound from the HPLC column was applied using a Thermo Surveyor MS Plus HPLC quaternary pumping system (Thermo Fisher Scientific, San Jose, Calif.) and a HTC PAL autoinjector (LEAP Technologies, Chapel Hill, N.C.).

PDE7B = PDE7B (Homo sapiens (Human), UniProt Q9NP56); assay: PDE7 phosphodiesterase scintillation proximity assay (SPA), PDE7B; format: biochemical
MPTP-treated mice = assay: inked paw stride length in the MPTP mouse model of Parkinson's disease, panel of PDE7 inhibitors (Example 7); format: in vivo; conditions: 20 minutes after dose
Procedure: Adult male C57BL/6J; retired breeders, aged between 7-9 months Charles River Laboratories, Wilmington, Mass.), singly housed. Three groups of 35 mice were tested in series one week apart.
Mice received 2 subcutaneous injections of methylphenyltetrahydropyridine (“MPTP”) at a dose of 15 mg/kg (free base) with a 10-12 hour interval between injections. Control mice (sham lesion groups) were administered saline instead of MPTP.
Prior to injection with MPTP or saline, animals were pre-trained to walk across a clean sheet of paper into their home cage without stopping. For assessment of stride length, animals had their forepaws placed in black ink and the length of forepaw steps during normal walking (in a straight line only) was measured. The animals were immediately put back into their home cage upon completion of the task. Stride length was determined by measuring the distance between each step on the same side of the body, measuring from the middle toe of the first step to the heel of the second step. An average of at least four clear steps was calculated. The schedule for this experiment was as follows:
Because of the wide variation in aqueous solubility among these compounds, a number of different formulations were required. L-dopa was administered in 100 μl of phosphate buffered saline. For animals treated with L-dopa, the dopa decarboxylase inhibitor benserazide (100 μL of a 12.5 mg/kg solution) was administered 15 minutes prior to treatment with L-dopa in order to minimize the destruction of L-dopa in the peripheral blood. […] Therefore, the treatment effects observed are due solely to the PDE7 inhibitory compounds themselves. […] This phenomenon of “overshoot” has also been observed with L-dopa in MPTP-treated mice in which lower doses ameliorate hypoactivity while higher doses induce dyskinesias or uncontrolled movements (Lundblad M. et al., Exp Neurol.194(1):66-75 (2005); Pearce R. K. et al., Mov Disord. 10(6):731-40 (1995); Fredriksson, A. et al, Pharmacol-Toxicol. 67(4): 295-301 (1990)).
Retired breeder male mice were treated with either saline or 2×15 mg/kg MPTP to induce a Parkinsonian state (neurochemical loss of dopamine with corresponding behavioral deficits). On day one baseline stride length was measured and then mice were treated with either MPTP or with saline as a control. On day eight stride length was measured again, and the control value for stride length was derived from the stride length of saline-treated animals. The animals were then divided randomly into treatment groups. Compound OM955 (compound 3) was tested at 0.1 mg/kg, at 0.5 mg/kg, and at 0.1 mg/kg in combination with 1 mg/kg L-dopa.

Tyrosine Hydroxylase [4] = molecular target: T2, Tyrosine Hydroxylase (Rattus norvegicus (Rat), UniProt P04177); assay: Tyrosine Hydroxylase enzyme assay; format: biochemical; conditions: read-out: Positive Control Observed IC50, Tyrosine Hydroxylase
Procedure: Tyrosine Hydroxylase was assayed as described in Roskoski, R., Jr., et al., J. Biochem 218:363-370 (1993) with the following modifications. Tyrosine Hydroxylase was isolated from Wistar rat brain. The substrate was 100 μM L-[3,5-^3H]Tyrosine+L-Tyrosine. The vehicle control was 1% DMSO. Compound OM69 was tested at 10 μM in incubation buffer (125 mM MES, pH 6.0, 0.5 mg/ml Catalase, 12.5 mM DTT, 0.5 mM (6R)-5,6,7,8-Tetrahydrobiopterin). The reaction was pre-incubated for 15 minutes at 37° C. Tyrosine Hydroxylase enzyme was added, and the reaction was incubated for 20 minutes at 37° C. [^3H]-H20 was quantitated.

Tyrosine Hydroxylase [5] = molecular target: T2, Tyrosine Hydroxylase; conditions: historical value; read-out: Positive Control Expected IC50 (historical), Tyrosine Hydroxylase; cited from earlier work

Sequence of PDE7B (Q9NP56 107-450 limits assumed): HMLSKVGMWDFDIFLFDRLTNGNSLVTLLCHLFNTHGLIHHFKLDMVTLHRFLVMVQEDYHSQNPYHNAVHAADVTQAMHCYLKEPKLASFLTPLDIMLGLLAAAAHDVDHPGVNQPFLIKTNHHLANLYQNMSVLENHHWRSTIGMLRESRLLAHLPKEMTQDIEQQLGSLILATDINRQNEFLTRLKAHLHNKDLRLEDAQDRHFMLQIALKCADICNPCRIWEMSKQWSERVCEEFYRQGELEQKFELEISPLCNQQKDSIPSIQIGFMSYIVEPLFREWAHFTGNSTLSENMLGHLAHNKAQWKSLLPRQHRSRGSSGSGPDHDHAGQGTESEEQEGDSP
T2 sequence (P04177 whole entry): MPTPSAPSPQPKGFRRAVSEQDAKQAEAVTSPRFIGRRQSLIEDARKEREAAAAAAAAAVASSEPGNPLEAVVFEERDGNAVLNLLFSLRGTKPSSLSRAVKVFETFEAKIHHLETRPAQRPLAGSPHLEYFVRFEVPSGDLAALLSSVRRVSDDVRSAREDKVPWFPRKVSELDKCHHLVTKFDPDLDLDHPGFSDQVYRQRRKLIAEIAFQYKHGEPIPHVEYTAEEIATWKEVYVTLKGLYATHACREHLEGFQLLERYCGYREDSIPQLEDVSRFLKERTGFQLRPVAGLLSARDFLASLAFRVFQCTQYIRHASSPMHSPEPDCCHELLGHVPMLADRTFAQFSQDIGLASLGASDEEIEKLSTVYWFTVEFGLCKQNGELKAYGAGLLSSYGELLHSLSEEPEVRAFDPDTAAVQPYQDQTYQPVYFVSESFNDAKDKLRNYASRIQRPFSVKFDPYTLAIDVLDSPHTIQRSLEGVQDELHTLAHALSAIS
Sequence of PDE7A (Q13946 whole entry, looked up): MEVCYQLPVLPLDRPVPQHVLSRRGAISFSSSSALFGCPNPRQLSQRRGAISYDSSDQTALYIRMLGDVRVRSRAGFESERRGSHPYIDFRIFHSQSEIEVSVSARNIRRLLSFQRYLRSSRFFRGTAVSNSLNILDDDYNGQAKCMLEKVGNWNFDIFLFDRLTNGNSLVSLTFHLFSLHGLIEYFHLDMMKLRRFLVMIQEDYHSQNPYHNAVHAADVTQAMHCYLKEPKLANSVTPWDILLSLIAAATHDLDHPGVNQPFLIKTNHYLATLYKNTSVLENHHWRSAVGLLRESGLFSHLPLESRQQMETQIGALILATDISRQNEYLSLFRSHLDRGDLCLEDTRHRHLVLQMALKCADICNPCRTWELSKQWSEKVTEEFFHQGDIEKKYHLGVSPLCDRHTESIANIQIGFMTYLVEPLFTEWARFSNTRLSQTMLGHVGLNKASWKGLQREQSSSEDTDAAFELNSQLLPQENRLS
T1 sequence (D3K5L3 1-270): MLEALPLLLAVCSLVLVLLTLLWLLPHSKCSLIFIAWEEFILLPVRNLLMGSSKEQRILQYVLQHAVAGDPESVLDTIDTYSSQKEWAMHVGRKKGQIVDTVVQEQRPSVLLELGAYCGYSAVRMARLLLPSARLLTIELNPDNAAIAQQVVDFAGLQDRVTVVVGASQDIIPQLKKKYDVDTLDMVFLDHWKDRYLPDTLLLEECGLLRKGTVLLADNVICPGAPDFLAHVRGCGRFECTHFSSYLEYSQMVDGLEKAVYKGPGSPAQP

O=[N+]([O-])c1cc(O)c(O)c([N+](=O)[O-])c1 [3,5-Dinitrocatechol, reference compound]
IC50 [1]: 606 nM | IC50 [2]: 310 nM

COc1cc(N)ccc1-c1nc2c(C)nn(C3CCCCC3)c2c(=O)[nH]1 [OM056]
potency of PDE7A inhibition, in words (PDE7A): high potency | maximal brain concentration at dose where efficacy was observed [3]: 358 nM | potency of PDE7B inhibition, in words (PDE7B): high potency | IC50 (PDE7B; unit inferred): 9.27 nM | effect on stride length, in words (MPTP-treated mice; OM056 0.05 mg/kg): statistically significant increase; also recorded: full recovery of baseline stride length

CC(=O)Nc1ccc(-c2nn(C)/c(=N/C3CCCCC3)s2)cc1 [OM956]
potency of PDE7A inhibition, in words (PDE7A): moderate potency | maximal brain concentration at dose where efficacy was observed [3]: 5260 nM | potency of PDE7B inhibition, in words (PDE7B): moderate potency | effect on stride length, in words (MPTP-treated mice; OM956 0.5 mg/kg): statistically significant increase; also recorded: full recovery of baseline stride length

C[C@](N)(Cc1ccc(O)cc1)C(=O)O [α-Methyl-L-P-Tyrosine, reference compound]
IC50 (Tyrosine Hydroxylase [4]): 20200 nM | IC50 (Tyrosine Hydroxylase [5]): 20000 nM
